Experimental data as given in ChEMBL document CHEMBL4842322, “A naphthalimide-polyamine conjugate preferentially accumulates in hepatic carcinoma metastases as a lysosome-targeted antimetastatic agent” (Eur J Med Chem, 2021).

Columns and labels:
Type in all cases: functional, cell-based
Huh-7 = test: Cytotoxicity against human Huh-7 cells assessed as inhibition of cell growth incubated for 48 hrs by MTT assay; settings: Huh-7, 48 h
HepG2 = test: Cytotoxicity against human HepG2 cells assessed as inhibition of cell growth incubated for 48 hrs by MTT assay; settings: HepG2, 48 h
MDA-MB-231 = test: Cytotoxicity against human MDA-MB-231 cells assessed as inhibition of cell growth incubated for 48 hrs by MTT assay; settings: MDA-MB-231, 48 h
A549 [1] = test: Cytotoxicity against cisplatin-resistant human A549 cells assessed as inhibition of cell growth incubated for 48 hrs by MTT assay; settings: A549, 48 h
A549 [2] = test: Cytotoxicity against human A549 cells assessed as inhibition of cell growth incubated for 48 hrs by MTT assay; settings: A549, 48 h
MCF7 = test: Cytotoxicity against human MCF7 cells assessed as inhibition of cell growth incubated for 48 hrs by MTT assay; settings: MCF7, 48 h

Measured: IC50

NCCCCNCCCN1C(=O)c2cccc3cc(NC(=O)CN)cc(c23)C1=O
> 30 µM: all assays above
